The test concerns the target T1, LonP1^R721G (Homo sapiens, UniProt P36776, R721G).
T1 construct: hexa-histidine (N); made in house; host or cells: Rosetta 2 E. coli
T1 sequence (P36776 68-959 R721G): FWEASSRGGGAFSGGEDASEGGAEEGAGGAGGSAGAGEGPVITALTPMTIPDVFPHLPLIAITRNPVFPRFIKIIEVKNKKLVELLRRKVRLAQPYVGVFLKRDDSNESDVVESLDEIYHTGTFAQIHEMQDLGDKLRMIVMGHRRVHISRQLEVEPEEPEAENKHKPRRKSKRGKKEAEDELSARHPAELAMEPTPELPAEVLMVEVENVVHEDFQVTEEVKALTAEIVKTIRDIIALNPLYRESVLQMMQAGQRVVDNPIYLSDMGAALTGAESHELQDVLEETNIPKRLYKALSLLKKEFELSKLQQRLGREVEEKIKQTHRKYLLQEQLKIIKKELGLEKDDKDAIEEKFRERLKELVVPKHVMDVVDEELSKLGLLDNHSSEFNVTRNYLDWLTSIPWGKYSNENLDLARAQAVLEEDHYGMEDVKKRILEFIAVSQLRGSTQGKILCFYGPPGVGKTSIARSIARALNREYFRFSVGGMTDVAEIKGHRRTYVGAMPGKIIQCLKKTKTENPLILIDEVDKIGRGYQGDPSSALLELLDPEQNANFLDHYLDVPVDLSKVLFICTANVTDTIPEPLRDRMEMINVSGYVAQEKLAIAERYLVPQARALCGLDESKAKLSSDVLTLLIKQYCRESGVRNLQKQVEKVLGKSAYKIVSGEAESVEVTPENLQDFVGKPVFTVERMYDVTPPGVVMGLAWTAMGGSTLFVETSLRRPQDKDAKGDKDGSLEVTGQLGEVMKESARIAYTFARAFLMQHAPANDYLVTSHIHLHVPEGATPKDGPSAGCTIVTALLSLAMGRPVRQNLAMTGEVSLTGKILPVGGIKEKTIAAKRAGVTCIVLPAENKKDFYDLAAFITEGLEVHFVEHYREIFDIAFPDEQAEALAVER
The test is described as follows: NADH-coupled ATPase assay, CODAS mutant LonP1^R721G. It is filed as biochemical. Conditions: compound 20 μM. The method, then: Figure 2 The ATPase activity of wild-type LonP1^WTis blocked by CDDO-Me and CDDO-anhydride by noncompetitive and competitive inhibition, respectively, whereas the CODAS mutant LonP1^R721GATPase is resistant to inhibition. ATPase activities were measured using an NADH-coupled ATPase assay. Wild type and mutant LonP1 proteins (400 nM) were pre-incubated with or without compound for 30 min at room temperature. A and E, LonP1^WT, and (H and I) comparison of LonP1^WT and LonP1^R721G. ATP was titrated and its hydrolysis was measured over 5 min (mean ± S.D., N ≥ 2). B and F, double-reciprocal Lineweaver–Burk plots (mean ± S.D., N ≥ 2). C and G, determination of Ki (mean ± S.D., N ≥ 2). D, determination of αKi (mean ± S.D., N ≥ 2). C, G and H. mean values obtained from linear regression data. CDDO, 2-cyano-3,12-dioxooleana-1,9(11)-dien-28-oic acid.
ATPase reactions (200 μl total) were performed in 96-well plates at room temperature. LonP1 (400 nM monomer) was preincubated with DMSO (1–2%) vehicle control or CDDO derivatives in buffer (50 mM HEPES-KOH pH 7.5, 5 mM magnesium acetate, 75 mM potassium acetate) for 30 to 45 min at room temperature or 30 °C. […] The change in NADH absorbance at 340 nm was monitored in Spectramax plate reader for 5 min to obtain reaction velocities. […]

The values that follow come from article PMC8921294, “Inhibition of mitochondrial LonP1 protease by allosteric blockade of ATP binding and hydrolysis via CDDO and its derivatives” (The Journal of Biological Chemistry, 2022).

Each structure is given as a SMILES string.

For the compound `COC(=O)[C@]12CCC(C)(C)C[C@H]1[C@H]1C(=O)C=C3[C@@]4(C)C=C(C#N)C(=O)C(C)(C)[C@@H]4CC[C@@]3(C)[C@]1(C)CC2` [CDDO-Me], the “Inhibition of LonP1^R721G ATPase compared with LonP1^WT” value is “showed resistance”. Take `CC1(C)CC[C@]2(C(=O)OC(=O)[C@]34CCC(C)(C)C[C@H]3[C@H]3C(=O)C=C5[C@@]6(C)C=C(C#N)C(=O)C(C)(C)[C@@H]6CC[C@@]5(C)[C@]3(C)CC4)CC[C@]3(C)[C@H](C(=O)C=C4[C@@]5(C)C=C(C#N)C(=O)C(C)(C)[C@@H]5CC[C@]43C)[C@@H]2C1` [CDDO-anhydride]: the “Inhibition of LonP1^R721G ATPase compared with LonP1^WT” value is recorded as “showed resistance”.
